In US8802597B2, “Herbicidal pyrimidines” (E I du Pont de Nemours and Company, priority 2003, dated 2014):
Like-named read-outs stand apart in the source and are kept apart here.

Assays:
Type in all cases: in vivo
[1] = test system: Surinam grass (Brachiaria decumbens); experiment: Test B pre/postemergence; settings: Urochloa decumbens; for pest or weed control at 125 g/ha: 125 g ai/ha; for pest or weed control at 500 g/ha: 500 g ai/ha
In short: (§1)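 Formulation: non-phytotoxic solvent blend with surfactant. Timing: preemergence on seeds, postemergence at 1- to 4-leaf (2–18 cm). Assessment: visual, 0–100 against controls, after 13–15 days' greenhouse growth.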

[2] = test system: barnyardgrass (Echinochloa crus-galli); experiment: Test B pre/postemergence; settings: Echinochloa crus-galli; for pest or weed control at 125 g/ha: 125 g ai/ha; for pest or weed control at 500 g/ha: 500 g ai/ha
In short: as §1

[3] = test system: cocklebur (Xanthium strumarium); experiment: Test B pre/postemergence; settings: Xanthium strumarium; for pest or weed control at 125 g/ha: 125 g ai/ha; for pest or weed control at 500 g/ha: 500 g ai/ha
In short: as §1

corn (Zea mays) = experiment: Test B pre/postemergence; settings: Zea mays
In short: as §1

[4] = test system: crabgrass (Digitaria sanguinalis); experiment: Test B pre/postemergence; settings: Digitaria sanguinalis; for pest or weed control at 125 g/ha: 125 g ai/ha; for pest or weed control at 500 g/ha: 500 g ai/ha
In short: as §1

[5] = test system: giant foxtail (Setaria faberii); experiment: Test B pre/postemergence; settings: Setaria faberi; for pest or weed control at 125 g/ha: 125 g ai/ha; for pest or weed control at 500 g/ha: 500 g ai/ha
In short: as §1

[6] = test system: lambsquarters (Chenopodium album); experiment: Test B pre/postemergence; settings: Chenopodium album; for pest or weed control at 125 g/ha: 125 g ai/ha; for pest or weed control at 500 g/ha: 500 g ai/ha
In short: as §1

[7] = test system: morningglory (Ipomoea coccinea); experiment: Test B pre/postemergence; settings: Ipomoea; for pest or weed control at 125 g/ha: 125 g ai/ha; for pest or weed control at 500 g/ha: 500 g ai/ha
In short: as §1

[8] = test system: pigweed (Amaranthus retroflexus); experiment: Test B pre/postemergence; settings: Amaranthus retroflexus; for pest or weed control at 125 g/ha: 125 g ai/ha; for pest or weed control at 500 g/ha: 500 g ai/ha
In short: as §1

[9] = test system: velvetleaf (Abutilon theophrasti); experiment: Test B pre/postemergence; settings: Abutilon theophrasti; for pest or weed control at 125 g/ha: 125 g ai/ha; for pest or weed control at 500 g/ha: 500 g ai/ha
In short: as §1

[10] = test system: wheat (Triticum aestivum); experiment: Test B pre/postemergence; settings: Triticum aestivum; for plant injury at 125 g/ha: 125 g ai/ha; for plant injury at 500 g/ha: 500 g ai/ha
In short: as §1

[11] = test system: blackgrass (Alopecurus myosuroides); experiment: Test B postemergence; settings: Alopecurus myosuroides, post-emergence
In short: as §1

wild oat (Avena fatua) = experiment: Test B postemergence; settings: Avena fatua, post-emergence
In short: as §1

[12] = test system: barnyardgrass (Echinochloa crus-galli); experiment: Test B flooded paddy test; settings: Echinochloa crus-galli, Flood, 1000 g ai/ha; scale 0 (no effect) to 100 (complete control); read-out: Plant response rating, Barnyardgrass
In short: (§2)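 Rice, umbrella sedge, duck salad and barnyardgrass grown to 2-leaf stage under flooded paddy conditions and treated with formulated test chemicals. Kept in greenhouse 13–15 days, then visually rated against untreated controls on a 0–100 scale (0 no effect, 100 complete control).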

[13] = test system: duck salad (Heteranthera limosa); experiment: Test B flooded paddy test; settings: Heteranthera limosa, Flood, 1000 g ai/ha; scale 0 to 100; read-out: Plant response rating, Ducksalad
In short: as §2

rice (Oryza sativa) = experiment: Test B flooded paddy test; settings: Oryza sativa, Flood, 1000 g ai/ha; scale 0 to 100; read-out: Plant response rating, Rice
In short: as §2

[14] = test system: umbrella sedge (Cyperus difformis); experiment: Test B flooded paddy test; settings: Cyperus difformis, Flood, 1000 g ai/ha; scale 0 to 100; read-out: Plant response rating, Sedge, Umbrella
In short: as §2

COC(=O)c1nc(C(C)C)nc(N)c1Br [Compound 3]
pest or weed control at 125 g/ha ([1]; post-emergence, Postemergence, scale 0 to 100 (0 no effect, 100 complete control), read-out: Surinam Grass plant response rating): 10% | pest or weed control at 500 g/ha ([1]; post-emergence, Postemergence, scale 0 to 100, read-out: Plant response rating, Surinam Grass): 30% | pest or weed control at 125 g/ha ([1]; pre-emergence, Preemergence, scale 0 to 100 (0 no effect, 100 complete control), read-out: Plant response rating, Surinam Grass): 0% | pest or weed control at 500 g/ha ([1]; pre-emergence, Preemergence, scale 0 to 100 (0 no effect, 100 complete control), read-out: Surinam Grass plant response rating): 20% | pest or weed control at 125 g/ha ([2]; post-emergence, Postemergence, scale 0 to 100 (0 no effect, 100 complete control), read-out: Barnyardgrass plant response rating): 0% | pest or weed control at 500 g/ha ([2]; post-emergence, Postemergence, scale 0 to 100, read-out: Plant response rating, Barnyardgrass): 10% | pest or weed control at 125 g/ha ([2]; pre-emergence, Preemergence, scale 0 to 100 (0 no effect, 100 complete control), read-out: Plant response rating, Barnyardgrass): 0% | pest or weed control at 500 g/ha ([2]; pre-emergence, Preemergence, scale 0 to 100 (0 no effect, 100 complete control), read-out: Barnyardgrass plant response rating): 0% | pest or weed control at 125 g/ha ([3]; post-emergence, Postemergence, scale 0 to 100 (0 no effect, 100 complete control), read-out: Cocklebur plant response rating): 70% | pest or weed control at 500 g/ha ([3]; post-emergence, Postemergence, scale 0 to 100, read-out: Plant response rating, Cocklebur): 100% | pest or weed control at 125 g/ha ([3]; pre-emergence, Preemergence, scale 0 to 100 (0 no effect, 100 complete control), read-out: Plant response rating, Cocklebur): 80% | pest or weed control at 500 g/ha ([3]; pre-emergence, Preemergence, scale 0 to 100 (0 no effect, 100 complete control), read-out: Cocklebur plant response rating): 80% | plant injury at 125 g/ha (corn (Zea mays); post-emergence, Postemergence, 125 g ai/ha, scale 0 to 100 (0 no effect, 100 complete control), read-out: Corn plant response rating): 0% | Corn plant response rating (crop injury, 0 = no effect, 100 = complete kill) at 500 g/ha (corn (Zea mays); post-emergence, Postemergence, 500 g ai/ha, scale 0 to 100): 0% | Corn plant response rating (crop injury, 0 = no effect, 100 = complete kill) at 125 g/ha (corn (Zea mays); pre-emergence, Preemergence, 125 g ai/ha, scale 0 to 100 (0 no effect, 100 complete control)): 0% | plant injury at 500 g/ha (corn (Zea mays); pre-emergence, Preemergence, 500 g ai/ha, scale 0 to 100 (0 no effect, 100 complete control), read-out: Corn plant response rating): 0% | pest or weed control at 125 g/ha ([4]; post-emergence, Postemergence, scale 0 to 100 (0 no effect, 100 complete control), read-out: Crabgrass plant response rating): 30% | pest or weed control at 500 g/ha ([4]; post-emergence, Postemergence, scale 0 to 100, read-out: Plant response rating, Crabgrass): 40% | pest or weed control at 125 g/ha ([4]; pre-emergence, Preemergence, scale 0 to 100 (0 no effect, 100 complete control), read-out: Plant response rating, Crabgrass): 10% | pest or weed control at 500 g/ha ([4]; pre-emergence, Preemergence, scale 0 to 100 (0 no effect, 100 complete control), read-out: Crabgrass plant response rating): 50% | pest or weed control at 125 g/ha ([5]; post-emergence, Postemergence, scale 0 to 100 (0 no effect, 100 complete control), read-out: Foxtail, Giant plant response rating): 20% | pest or weed control at 500 g/ha ([5]; post-emergence, Postemergence, scale 0 to 100, read-out: Plant response rating, Foxtail, Giant): 40% | pest or weed control at 125 g/ha ([5]; pre-emergence, Preemergence, scale 0 to 100 (0 no effect, 100 complete control), read-out: Plant response rating, Foxtail, Giant): 0% | pest or weed control at 500 g/ha ([5]; pre-emergence, Preemergence, scale 0 to 100 (0 no effect, 100 complete control), read-out: Foxtail, Giant plant response rating): 0% | pest or weed control at 125 g/ha ([6]; post-emergence, Postemergence, scale 0 to 100 (0 no effect, 100 complete control), read-out: Lambsquarters plant response rating): 100% | pest or weed control at 500 g/ha ([6]; post-emergence, Postemergence, scale 0 to 100, read-out: Plant response rating, Lambsquarters): 100% | pest or weed control at 125 g/ha ([6]; pre-emergence, Preemergence, scale 0 to 100 (0 no effect, 100 complete control), read-out: Plant response rating, Lambsquarters): 70% | pest or weed control at 500 g/ha ([6]; pre-emergence, Preemergence, scale 0 to 100 (0 no effect, 100 complete control), read-out: Lambsquarters plant response rating): 90% | pest or weed control at 125 g/ha ([7]; post-emergence, Postemergence, scale 0 to 100 (0 no effect, 100 complete control), read-out: Morningglory plant response rating): 80% | pest or weed control at 500 g/ha ([7]; post-emergence, Postemergence, scale 0 to 100, read-out: Plant response rating, Morningglory): 100% | pest or weed control at 125 g/ha ([7]; pre-emergence, Preemergence, scale 0 to 100 (0 no effect, 100 complete control), read-out: Plant response rating, Morningglory): 50% | pest or weed control at 500 g/ha ([7]; pre-emergence, Preemergence, scale 0 to 100 (0 no effect, 100 complete control), read-out: Morningglory plant response rating): 60% | pest or weed control at 125 g/ha ([8]; post-emergence, Postemergence, scale 0 to 100 (0 no effect, 100 complete control), read-out: Pigweed plant response rating): 80% | pest or weed control at 500 g/ha ([8]; post-emergence, Postemergence, scale 0 to 100, read-out: Plant response rating, Pigweed): 90% | pest or weed control at 125 g/ha ([8]; pre-emergence, Preemergence, scale 0 to 100 (0 no effect, 100 complete control), read-out: Plant response rating, Pigweed): 80% | pest or weed control at 500 g/ha ([8]; pre-emergence, Preemergence, scale 0 to 100 (0 no effect, 100 complete control), read-out: Pigweed plant response rating): 90% | pest or weed control at 125 g/ha ([9]; post-emergence, Postemergence, scale 0 to 100 (0 no effect, 100 complete control), read-out: Velvetleaf plant response rating): 50% | pest or weed control at 500 g/ha ([9]; post-emergence, Postemergence, scale 0 to 100, read-out: Plant response rating, Velvetleaf): 80% | pest or weed control at 125 g/ha ([9]; pre-emergence, Preemergence, scale 0 to 100 (0 no effect, 100 complete control), read-out: Plant response rating, Velvetleaf): 40% | pest or weed control at 500 g/ha ([9]; pre-emergence, Preemergence, scale 0 to 100 (0 no effect, 100 complete control), read-out: Velvetleaf plant response rating): 70% | plant injury at 125 g/ha ([10]; post-emergence, Postemergence, scale 0 to 100 (0 no effect, 100 complete control), read-out: Wheat plant response rating): 10% | plant injury at 500 g/ha ([10]; post-emergence, Postemergence, scale 0 to 100, read-out: Plant response rating, Wheat): 20% | plant injury at 125 g/ha ([10]; pre-emergence, Preemergence, scale 0 to 100 (0 no effect, 100 complete control), read-out: Plant response rating, Wheat): 0% | plant injury at 500 g/ha ([10]; pre-emergence, Preemergence, scale 0 to 100 (0 no effect, 100 complete control), read-out: Wheat plant response rating): 0% | pest or weed control at 125 g/ha ([11]; 125 g ai/ha, scale 0 to 100 (0 no effect, 100 complete control), read-out: Blackgrass plant response rating): 20% | pest or weed control at 500 g/ha ([11]; 500 g ai/ha, scale 0 to 100, read-out: Plant response rating, Blackgrass): 50% | pest or weed control at 125 g/ha (wild oat (Avena fatua); 125 g ai/ha, scale 0 to 100 (0 no effect, 100 complete control), read-out: Oat, Wild plant response rating): 10% | pest or weed control at 500 g/ha (wild oat (Avena fatua); 500 g ai/ha, scale 0 to 100, read-out: Plant response rating, Oat, Wild): 30% | pest or weed control at 1000 g/ha [12]: 0% | pest or weed control at 1000 g/ha [13]: 0% | plant injury at 1000 g/ha (rice (Oryza sativa)): 0% | pest or weed control at 1000 g/ha [14]: 0%
